The test system of this experiment is MV-4-11 cells. Put plainly: Gene expression microarray analysis (Affymetrix PrimeView) and GSEA. Type of experiment: cell-based, human. Also noted: RFU PODN (11730768_x_at) / Fold change /veh PODN (11730768_x_at) / RFU LINC00158 (11744669_a_at) / Fold change /veh LINC00158 (11744669_a_at) / RFU DUSP10 (11751237_a_at) / Fold change /veh DUSP10 (11751237_a_at) / RFU ID3 (11757404_x_at) / Fold change /veh ID3 (11757404_x_at) / RFU PLEKHG5 (11737974_s_at) / Fold change /veh PLEKHG5 (11737974_s_at) / RFU LRRC4B (11730491_at) / Fold change /veh LRRC4B (11730491_at) / RFU GIMAP4 (11747438_a_at) / Fold change /veh GIMAP4 (11747438_a_at) / RFU KRT8 (11758183_x_at) / Fold change /veh KRT8 (11758183_x_at) / RFU CNN1 (11734310_a_at) / Fold change /veh CNN1 (11734310_a_at) / RFU VPS37D (11726825_at) / Fold change /veh VPS37D (11726825_at) / RFU C10orf10 (11716522_x_at) / Fold change /veh C10orf10 (11716522_x_at) / RFU KIR2DL2 /// KIR2DL4 /// KIR2DL5A /// KIR2DL5B /// KIR2DS1 /// KIR2DS2 /// KIR2DS3 /// KIR2DS4 /// KIR3DL3 /// KIR3DL3 /// KIR3DS1 (11738374_at) / Fold change /veh KIR2DL2 /// KIR2DL4 /// KIR2DL5A /// KIR2DL5B /// KIR2DS1 /// KIR2DS2 /// KIR2DS3 /// KIR2DS4 /// KIR3DL3 /// KIR3DL3 /// KIR3DS1 (11738374_at) / RFU C1QL1 (11718748_at) / Fold change /veh C1QL1 (11718748_at) / RFU TMPRSS4 (11747572_a_at) / Fold change /veh TMPRSS4 (11747572_a_at) / RFU HAMP (11756126_x_at) / Fold change /veh HAMP (11756126_x_at) / RFU RNFT2 (11725882_a_at) / Fold change /veh RNFT2 (11725882_a_at) / RFU NR4A2 (11747474_a_at) / Fold change /veh NR4A2 (11747474_a_at) / RFU ABCC12 (11746883_a_at) / Fold change /veh ABCC12 (11746883_a_at) / RFU TMEM136 (11760407_x_at) / Fold change /veh TMEM136 (11760407_x_at) / RFU CLDN22 /// WWC2 (11732394_at) / Fold change /veh CLDN22 /// WWC2 (11732394_at) / RFU HLA-DPB1 (11760878_x_at) / Fold change /veh HLA-DPB1 (11760878_x_at) / RFU SPINT1 (11716480_a_at) / Fold change /veh SPINT1 (11716480_a_at) / RFU GAP43 (11754022_s_at) / Fold change /veh GAP43 (11754022_s_at) / RFU A4GNT (11735810_at) / Fold change /veh A4GNT (11735810_at) / RFU PRB3 (11715151_x_at) / Fold change /veh PRB3 (11715151_x_at) / RFU TUBB4B (11761932_at) / Fold change /veh TUBB4B (11761932_at) / RFU CAPN14 (11732068_a_at) / Fold change /veh CAPN14 (11732068_a_at) / RFU TMCC2 (11721928_a_at) / Fold change /veh TMCC2 (11721928_a_at) / RFU IRGQ (11745062_a_at) / Fold change /veh IRGQ (11745062_a_at) / RFU FAM174B (11720279_a_at) / Fold change /veh FAM174B (11720279_a_at) / RFU TMPRSS4 (11748680_a_at) / Fold change /veh TMPRSS4 (11748680_a_at) / RFU FAM212B (11763350_a_at) / Fold change /veh FAM212B (11763350_a_at) / RFU PLEKHG5 (11743358_a_at) / Fold change /veh PLEKHG5 (11743358_a_at) / RFU ZSCAN30 (11745921_a_at) / Fold change /veh ZSCAN30 (11745921_a_at) / RFU CMKLR1 (11741424_a_at) / Fold change /veh CMKLR1 (11741424_a_at) / RFU LOC101060620 /// MAPK8IP1 (11723275_at) / Fold change /veh LOC101060620 /// MAPK8IP1 (11723275_at) / RFU SPTSSB (11747773_x_at) / Fold change /veh SPTSSB (11747773_x_at) / RFU PRSS12 (11739890_at) / Fold change /veh PRSS12 (11739890_at) / RFU BIN1 (11741810_x_at) / Fold change /veh BIN1 (11741810_x_at) / RFU WNT11 (11732464_a_at) / Fold change /veh WNT11 (11732464_a_at) / RFU C10orf10 (11716521_a_at) / Fold change /veh C10orf10 (11716521_a_at) / RFU C5orf56 (11738089_at) / Fold change /veh C5orf56 (11738089_at) / RFU CYB561 (11721691_x_at) / Fold change /veh CYB561 (11721691_x_at) / RFU ANKRD19P (11752326_a_at) / Fold change /veh ANKRD19P (11752326_a_at) / RFU OR2T12 /// OR2T33 /// OR2T8 (11738714_s_at) / Fold change /veh OR2T12 /// OR2T33 /// OR2T8 (11738714_s_at) / RFU VCAN (11748164_a_at) / Fold change /veh VCAN (11748164_a_at) / RFU JSRP1 (11732532_at) / Fold change /veh JSRP1 (11732532_at) / RFU KRTAP10-11 (11738290_x_at) / Fold change /veh KRTAP10-11 (11738290_x_at) / RFU MYO3A (11730013_a_at) / Fold change /veh MYO3A (11730013_a_at) / RFU EBF3 (11725865_a_at) / Fold change /veh EBF3 (11725865_a_at) / RFU CAMK2N1 (11719241_x_at) / Fold change /veh CAMK2N1 (11719241_x_at) / RFU C5orf56 (11738088_a_at) / Fold change /veh C5orf56 (11738088_a_at) / RFU OLFML3 (11715873_a_at) / Fold change /veh OLFML3 (11715873_a_at) / RFU LOC100653217 /// NTM (11731650_a_at) / Fold change /veh LOC100653217 /// NTM (11731650_a_at) / RFU MAPK11 (11762145_a_at) / Fold change /veh MAPK11 (11762145_a_at) / RFU FIZ1 (11724087_x_at) / Fold change /veh FIZ1 (11724087_x_at) / RFU OASL (11726364_x_at) / Fold change /veh OASL (11726364_x_at) / RFU SOX15 (11748057_x_at) / Fold change /veh SOX15 (11748057_x_at) / RFU CD79A (11719716_a_at) / Fold change /veh CD79A (11719716_a_at) / RFU HIST1H1D (11736915_at) / Fold change /veh HIST1H1D (11736915_at) / RFU CASKIN2 (11723855_a_at) / Fold change /veh CASKIN2 (11723855_a_at) / RFU LOC730098 (11760151_x_at) / Fold change /veh LOC730098 (11760151_x_at) / RFU OR4N2 (11742367_at) / Fold change /veh OR4N2 (11742367_at) / RFU PRRT2 (11749266_a_at) / Fold change /veh PRRT2 (11749266_a_at) / RFU SNX32 (11753110_a_at) / Fold change /veh SNX32 (11753110_a_at) / RFU CDHR5 (11726645_a_at) / Fold change /veh CDHR5 (11726645_a_at) / RFU RCAN1 (11760418_a_at) / Fold change /veh RCAN1 (11760418_a_at) / RFU FAM167A (11723789_a_at) / Fold change /veh FAM167A (11723789_a_at) / RFU FAM26E (11764081_at) / Fold change /veh FAM26E (11764081_at) / RFU ISYNA1 (11749810_s_at) / Fold change /veh ISYNA1 (11749810_s_at) / RFU ACY1 (11761880_at) / Fold change /veh ACY1 (11761880_at) / RFU 11764098_at / Fold change /veh 11764098_at / RFU SAMD14 (11745864_x_at) / Fold change /veh SAMD14 (11745864_x_at) / RFU NPB (11741838_a_at) / Fold change /veh NPB (11741838_a_at) / RFU TMPRSS6 (11731388_a_at) / Fold change /veh TMPRSS6 (11731388_a_at) / RFU KRTAP10-2 (11738614_at) / Fold change /veh KRTAP10-2 (11738614_at) / RFU ARHGAP8 /// PRR5-ARHGAP8 (11727945_x_at) / Fold change /veh ARHGAP8 /// PRR5-ARHGAP8 (11727945_x_at) / RFU KRTAP5-7 /// NADSYN1 (11734609_at) / Fold change /veh KRTAP5-7 /// NADSYN1 (11734609_at) / RFU RASL12 (11751679_a_at) / Fold change /veh RASL12 (11751679_a_at) / RFU CDKN2B (11736163_a_at) / Fold change /veh CDKN2B (11736163_a_at) / RFU PRF1 (11729649_at) / Fold change /veh PRF1 (11729649_at) / RFU, ZNF638 /// ZNF638-IT1 / Fold change vs veh, ZNF638 /// ZNF638-IT1 / RFU, PANK3 / Fold change vs veh, PANK3 / RFU, SH3YL1 / Fold change vs veh, SH3YL1 / RFU, ZEB2 / Fold change vs veh, ZEB2 / RFU, NRIP1 / Fold change vs veh, NRIP1 / RFU, PTTG1IP / Fold change vs veh, PTTG1IP / RFU, CAPN2 / Fold change vs veh, CAPN2 / RFU, MED14 / Fold change vs veh, MED14 / RFU, SNORA58 / Fold change vs veh, SNORA58 / RFU, C1orf63 / Fold change vs veh, C1orf63 / RFU, LRRFIP1 / Fold change vs veh, LRRFIP1 / RFU, NDUFAF7 / Fold change vs veh, NDUFAF7 / RFU, SLC12A2 / Fold change vs veh, SLC12A2 / RFU, IBTK / Fold change vs veh, IBTK / RFU, ESF1 / Fold change vs veh, ESF1 / Fold change vs veh, TMEM50B / RFU, TAOK1 / Fold change vs veh, TAOK1 / RFU, ACBD3 / Fold change vs veh, ACBD3 / RFU, TMA16 / Fold change vs veh, TMA16 / RFU, RWDD3 / Fold change vs veh, RWDD3 / RFU, BCAT1 / Fold change vs veh, BCAT1 / RFU, EDEM3 / Fold change vs veh, EDEM3 / RFU, TMEM33 / Fold change vs veh, TMEM33 / RFU, WDR75 / Fold change vs veh, WDR75 / RFU, AHCTF1 / Fold change vs veh, AHCTF1 / RFU, TFRC / Fold change vs veh, TFRC / RFU, ZDHHC17 / Fold change vs veh, ZDHHC17 / RFU, NOM1 / Fold change vs veh, NOM1 / RFU, ARL8B / Fold change vs veh, ARL8B / RFU, ZBTB11 / Fold change vs veh, ZBTB11 / RFU, TAMM41 / Fold change vs veh, TAMM41 / RFU, KIAA1704 /// LOC100996395 / Fold change vs veh, KIAA1704 /// LOC100996395 / RFU, ING1 / Fold change vs veh, ING1 / RFU, TRMT61B / Fold change vs veh, TRMT61B / RFU, FUBP3 / Fold change vs veh, FUBP3 / RFU, TP53 / Fold change vs veh, TP53 / RFU, TNKS2 / Fold change vs veh, TNKS2 / RFU, ZFP14 / Fold change vs veh, ZFP14 / RFU, ACTR2 / Fold change vs veh, ACTR2 / RFU, PPP3R1 / Fold change vs veh, PPP3R1 / RFU, PIK3R1 / Fold change vs veh, PIK3R1 / RFU, HNRNPA1 / Fold change vs veh, HNRNPA1 / RFU, RNF170 / Fold change vs veh, RNF170 / RFU, ZNF28 / Fold change vs veh, ZNF28 / RFU, RNGTT / Fold change vs veh, RNGTT / RFU, OGT / Fold change vs veh, OGT / RFU, BRD1 / Fold change vs veh, BRD1 / RFU, MARS / Fold change vs veh, MARS / RFU, ZNF655 / Fold change vs veh, ZNF655 / RFU, FAHD1 / Fold change vs veh, FAHD1 / RFU, BDP1 / Fold change vs veh, BDP1 / RFU, LRRCC1 / Fold change vs veh, LRRCC1 / RFU, ARID1A / Fold change vs veh, ARID1A / RFU, ZNF146 / Fold change vs veh, ZNF146 / RFU, ZNF330 / Fold change vs veh, ZNF330 / RFU, GPN3 / Fold change vs veh, GPN3 / RFU, C9orf123 / Fold change vs veh, C9orf123 / RFU, N4BP2L2 / Fold change vs veh, N4BP2L2 / RFU, ARFIP1 / Fold change vs veh, ARFIP1 / RFU, FAM179B / Fold change vs veh, FAM179B / RFU, BCL10 / Fold change vs veh, BCL10 / RFU, UHRF1BP1L / Fold change vs veh, UHRF1BP1L / RFU, BET1 / Fold change vs veh, BET1 / RFU, CNOT2 / Fold change vs veh, CNOT2 / RFU, ZNF268 / Fold change vs veh, ZNF268 / Fold change vs veh, ZNF507 / RFU, DGCR2 / Fold change vs veh, DGCR2 / RFU, WDSUB1 / Fold change vs veh, WDSUB1 / Fold change vs veh, HSP90B1 /// MIR3652 / RFU, ADSS / Fold change vs veh, ADSS / RFU, GK / Fold change vs veh, GK / RFU, ZNF148 / Fold change vs veh, ZNF148 / RFU, TAF9 / Fold change vs veh, TAF9 / RFU, SLC1A5 / Fold change vs veh, SLC1A5 / RFU, SLMO2 / Fold change vs veh, SLMO2 / RFU, ABCC4 / Fold change vs veh, ABCC4 / RFU, LOC101060439 /// RAP1B / Fold change vs veh, LOC101060439 /// RAP1B / RFU, RFX7 / Fold change vs veh, RFX7 / RFU, GTPBP10 / Fold change vs veh, GTPBP10 / RFU, CNEP1R1 / Fold change vs veh, CNEP1R1 / RFU, BIVM-ERCC5 /// ERCC5 / Fold change vs veh, BIVM-ERCC5 /// ERCC5 / RFU, ILF3 / Fold change vs veh, ILF3 / RFU 11762660_at / Fold change /veh 11762660_at / RFU VCAN (11757783_s_at) / Fold change /veh VCAN (11757783_s_at) / RFU DDX43 (11728927_at) / Fold change /veh DDX43 (11728927_at) / RFU KRT8 (11758188_x_at) / Fold change /veh KRT8 (11758188_x_at) / RFU NKD1 (11759106_at) / Fold change /veh NKD1 (11759106_at) / RFU SRD5A1 (11742802_a_at) / Fold change /veh SRD5A1 (11742802_a_at) / RFU TPSAB1 /// TPSB2 (11721975_s_at) / Fold change /veh TPSAB1 /// TPSB2 (11721975_s_at) / RFU GSTM3 (11746129_a_at) / Fold change /veh GSTM3 (11746129_a_at) / RFU IL23R (11737362_x_at) / Fold change /veh IL23R (11737362_x_at) / RFU TMEM51 (11727254_a_at) / Fold change /veh TMEM51 (11727254_a_at) / RFU PIWIL2 (11732686_x_at) / Fold change /veh PIWIL2 (11732686_x_at) / RFU ORM1 (11744905_x_at) / Fold change /veh ORM1 (11744905_x_at) / RFU CCDC152 (11743942_at) / Fold change /veh CCDC152 (11743942_at) / RFU ECM1 (11717891_a_at) / Fold change /veh ECM1 (11717891_a_at) / RFU IL23R (11748794_a_at) / Fold change /veh IL23R (11748794_a_at) / RFU TNFAIP8L3 (11732012_x_at) / Fold change /veh TNFAIP8L3 (11732012_x_at) / RFU MBOAT4 (11741988_at) / Fold change /veh MBOAT4 (11741988_at) / RFU 11764193_at / Fold change /veh 11764193_at / RFU TMEM53 (11763286_at) / Fold change /veh TMEM53 (11763286_at) / RFU MAGEB2 (11727129_at) / Fold change /veh MAGEB2 (11727129_at) / RFU TMEM200A (11744735_a_at) / Fold change /veh TMEM200A (11744735_a_at) / RFU CCDC152 (11751479_a_at) / Fold change /veh CCDC152 (11751479_a_at) / RFU FAM211A (11726209_a_at) / Fold change /veh FAM211A (11726209_a_at) / RFU RGS16 (11746705_a_at) / Fold change /veh RGS16 (11746705_a_at) / RFU VCAN (11755009_s_at) / Fold change /veh VCAN (11755009_s_at) / RFU RHOB (11743442_s_at) / Fold change /veh RHOB (11743442_s_at) / RFU RGS16 (11720943_a_at) / Fold change /veh RGS16 (11720943_a_at) / RFU RGS16 (11720944_at) / Fold change /veh RGS16 (11720944_at) / RFU, VPS4B / Fold change vs veh, VPS4B / RFU, CREB1 / Fold change vs veh, CREB1 / RFU, DNAJC13 / Fold change vs veh, DNAJC13 / RFU, GNAQ / Fold change vs veh, GNAQ / RFU, CDK5R1 / Fold change vs veh, CDK5R1 / RFU, ZRANB3 / Fold change vs veh, ZRANB3 / RFU, CUL4A / Fold change vs veh, CUL4A / RFU, CCNY / Fold change vs veh, CCNY / RFU, UFL1 / Fold change vs veh, UFL1 / RFU, COG3 / Fold change vs veh, COG3 / RFU, DIAPH2 / Fold change vs veh, DIAPH2 / RFU, SKA2 / Fold change vs veh, SKA2 / RFU, AFF3 / Fold change vs veh, AFF3 / RFU, LMF1 / Fold change vs veh, LMF1 / RFU, IPO11 / Fold change vs veh, IPO11 / RFU, DFFB / Fold change vs veh, DFFB / RFU, FOXP1 / Fold change vs veh, FOXP1 / RFU, CARD8 / Fold change vs veh, CARD8 / RFU, STRN3 / Fold change vs veh, STRN3 / RFU, ADK / Fold change vs veh, ADK / RFU, RASSF2 / Fold change vs veh, RASSF2 / RFU, WIPF1 / Fold change vs veh, WIPF1 / RFU, LARP1B / Fold change vs veh, LARP1B / RFU, RASA1 / Fold change vs veh, RASA1 / RFU, RB1 / Fold change vs veh, RB1 / RFU, PPFIA1 / Fold change vs veh, PPFIA1 / RFU, MAT2A / Fold change vs veh, MAT2A / RFU, CCT5 / Fold change vs veh, CCT5 / RFU, WDR92 / Fold change vs veh, WDR92 / RFU, CUX1 / Fold change vs veh, CUX1 / RFU, TTC7A / Fold change vs veh, TTC7A / RFU, TMEM135 / Fold change vs veh, TMEM135 / RFU, DEPTOR / Fold change vs veh, DEPTOR / RFU, CPM / Fold change vs veh, CPM / RFU, DNAJB6 / Fold change vs veh, DNAJB6 / RFU, CACNA2D3 / Fold change vs veh, CACNA2D3 / RFU, DTX4 / Fold change vs veh, DTX4 / RFU, TFCP2 / Fold change vs veh, TFCP2 / RFU, GMCL1 /// GMCL1P1 / Fold change vs veh, GMCL1 /// GMCL1P1 / RFU, AEBP2 / Fold change vs veh, AEBP2 / RFU, SNHG1 /// SNORD22 /// SNORD25 /// SNORD26 /// SNORD27 /// SNORD28 /// SNORD29 /// SNORD31 / Fold change vs veh, SNHG1 /// SNORD22 /// SNORD25 /// SNORD26 /// SNORD27 /// SNORD28 /// SNORD29 /// SNORD31 / Fold change (Aza/veh), C12orf56 (ProbeSet 11735607_a_at) / Fold change (ACY-1035/veh), C12orf56 (ProbeSet 11735607_a_at) / Fold change (Aza/veh), FGFR1OP (ProbeSet 11751329_s_at) / Fold change (ACY-1035/veh), FGFR1OP (ProbeSet 11751329_s_at) / Fold change (Aza/veh), VPS36 (ProbeSet 11739960_a_at) / Fold change (ACY-1035/veh), VPS36 (ProbeSet 11739960_a_at) / RFU SYPL1 (11715823_x_at) / Fold change /veh SYPL1 (11715823_x_at) / RFU IGFBP7 (11715501_s_at) / Fold change /veh IGFBP7 (11715501_s_at) / RFU REEP3 (11722064_at) / Fold change /veh REEP3 (11722064_at) / RFU IGLL1 (11728026_x_at) / Fold change /veh IGLL1 (11728026_x_at): dose or concentration left out as unconfirmed. The note with it: MV-4-11 cells, 48 hours.

As for `Nc1ncn([C@@H]2O[C@H](CO)[C@@H](O)[C@H]2O)c(=O)n1` [azacitidine], the “Fold change /veh SNX32 (11753110_a_at)” value is on record as 1.11.

For the origin of these results see article PMC5218480 (PLoS ONE, 2017).
